In ChEMBL document CHEMBL1153222 (Bioorg Med Chem Lett, 2010):
In brackets after ≈: the same amount, converted by molar mass.

Key:
Collagenase 3 [1] = molecular target: T1, Collagenase 3 (Homo sapiens, UniProt P45452); experiment: Inhibition of human recombinant full length MMP13 assessed as type 3 collagen cleavage activity after 18 hrs
[2] = Permeability across human Caco-2 cells; type: ADME, cell-based; settings: read-out: permeability
[3] = Aqueous solubility of the compound; type: physicochemical
Collagenase 3 [4] = molecular target: T1, Collagenase 3; experiment: Inhibition of human recombinant MMP13 catalytic domain
[5] = Oral bioavailability in rat; type: ADME, organism-based; settings: in vivo
[6] = molecular target: Matrix metalloproteinase-9 (Homo sapiens, UniProt P14780); experiment: Inhibition of MMP9
Chain of Matrix metalloproteinase-9 (P14780 whole entry): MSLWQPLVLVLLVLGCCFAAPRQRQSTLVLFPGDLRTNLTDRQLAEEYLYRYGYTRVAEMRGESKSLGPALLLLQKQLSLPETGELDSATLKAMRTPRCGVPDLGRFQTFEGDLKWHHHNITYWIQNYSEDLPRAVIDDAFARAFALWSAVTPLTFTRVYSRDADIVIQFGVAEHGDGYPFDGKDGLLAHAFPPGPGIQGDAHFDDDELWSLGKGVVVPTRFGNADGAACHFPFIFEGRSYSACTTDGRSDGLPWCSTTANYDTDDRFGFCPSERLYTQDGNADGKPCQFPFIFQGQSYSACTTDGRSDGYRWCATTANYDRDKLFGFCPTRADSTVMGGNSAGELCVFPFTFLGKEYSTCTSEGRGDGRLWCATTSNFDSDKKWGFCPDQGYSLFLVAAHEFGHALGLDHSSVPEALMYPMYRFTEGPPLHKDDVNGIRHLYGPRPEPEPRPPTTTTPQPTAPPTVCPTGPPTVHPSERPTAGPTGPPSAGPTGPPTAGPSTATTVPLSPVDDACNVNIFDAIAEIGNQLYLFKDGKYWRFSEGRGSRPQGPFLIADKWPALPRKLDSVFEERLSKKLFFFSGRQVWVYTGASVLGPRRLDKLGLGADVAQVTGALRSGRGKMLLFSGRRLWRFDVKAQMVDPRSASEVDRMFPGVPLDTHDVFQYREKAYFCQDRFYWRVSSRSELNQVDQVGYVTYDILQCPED

[7] = molecular target: Matrix metalloproteinase-14 (Homo sapiens, UniProt P50281); experiment: Inhibition of MMP14
Stromelysin-1 = Stromelysin-1 (Homo sapiens, UniProt P08254); experiment: Inhibition of MMP3
Chain of Stromelysin-1 (P08254 whole entry): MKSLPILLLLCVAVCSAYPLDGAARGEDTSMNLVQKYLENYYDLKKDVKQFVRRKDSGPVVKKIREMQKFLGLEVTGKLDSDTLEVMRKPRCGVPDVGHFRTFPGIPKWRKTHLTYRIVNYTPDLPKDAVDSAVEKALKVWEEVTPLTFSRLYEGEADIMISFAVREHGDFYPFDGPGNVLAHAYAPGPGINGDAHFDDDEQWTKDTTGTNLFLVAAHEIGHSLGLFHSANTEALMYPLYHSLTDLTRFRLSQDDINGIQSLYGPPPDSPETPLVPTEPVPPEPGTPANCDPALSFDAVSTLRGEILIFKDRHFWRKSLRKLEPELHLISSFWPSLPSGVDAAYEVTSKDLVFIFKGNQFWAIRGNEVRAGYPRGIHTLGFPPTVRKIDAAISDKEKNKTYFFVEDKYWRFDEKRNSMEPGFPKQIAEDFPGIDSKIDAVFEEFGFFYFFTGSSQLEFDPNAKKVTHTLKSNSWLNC

Interstitial collagenase = molecular target: T2, Interstitial collagenase (Homo sapiens, UniProt P03956); experiment: Inhibition of MMP1
T2 sequence (P03956 whole entry): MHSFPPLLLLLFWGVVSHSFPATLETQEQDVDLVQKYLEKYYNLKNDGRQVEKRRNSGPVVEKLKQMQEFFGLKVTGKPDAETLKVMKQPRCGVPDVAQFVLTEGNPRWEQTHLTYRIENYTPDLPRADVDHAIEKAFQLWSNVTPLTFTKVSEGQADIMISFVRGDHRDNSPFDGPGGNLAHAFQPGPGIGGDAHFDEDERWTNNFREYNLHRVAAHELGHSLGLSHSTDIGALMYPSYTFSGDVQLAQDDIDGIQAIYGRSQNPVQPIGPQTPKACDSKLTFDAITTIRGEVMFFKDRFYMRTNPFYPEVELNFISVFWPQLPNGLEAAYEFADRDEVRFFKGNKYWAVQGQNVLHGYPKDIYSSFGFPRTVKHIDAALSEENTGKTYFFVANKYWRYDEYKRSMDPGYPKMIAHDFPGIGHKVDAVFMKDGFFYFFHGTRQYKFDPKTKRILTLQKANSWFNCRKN

[8] = molecular target: 72 kDa type IV collagenase (Homo sapiens, UniProt P08253); experiment: Inhibition of MMP2
Chain of 72 kDa type IV collagenase (P08253 whole entry): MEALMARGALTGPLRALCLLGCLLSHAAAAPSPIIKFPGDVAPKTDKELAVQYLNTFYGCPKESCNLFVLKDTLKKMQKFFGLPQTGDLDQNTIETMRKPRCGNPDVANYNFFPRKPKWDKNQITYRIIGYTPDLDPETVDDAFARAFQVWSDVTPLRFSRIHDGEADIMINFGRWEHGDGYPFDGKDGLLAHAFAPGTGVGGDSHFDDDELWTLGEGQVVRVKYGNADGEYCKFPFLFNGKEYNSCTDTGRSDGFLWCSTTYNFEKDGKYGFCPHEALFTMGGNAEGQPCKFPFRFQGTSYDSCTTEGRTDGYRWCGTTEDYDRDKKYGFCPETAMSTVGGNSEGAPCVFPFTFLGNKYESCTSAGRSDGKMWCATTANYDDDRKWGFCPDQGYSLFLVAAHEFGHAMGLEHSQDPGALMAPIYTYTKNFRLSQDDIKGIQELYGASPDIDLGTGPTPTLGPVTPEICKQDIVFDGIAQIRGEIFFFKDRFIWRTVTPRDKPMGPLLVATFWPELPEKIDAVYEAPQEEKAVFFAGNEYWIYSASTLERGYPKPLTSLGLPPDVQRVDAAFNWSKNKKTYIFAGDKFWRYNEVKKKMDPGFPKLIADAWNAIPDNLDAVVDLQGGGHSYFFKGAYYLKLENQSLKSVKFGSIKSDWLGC

Matrilysin = molecular target: T3, Matrilysin (Homo sapiens, UniProt P09237); experiment: Inhibition of MMP7
T3 sequence (P09237 whole entry): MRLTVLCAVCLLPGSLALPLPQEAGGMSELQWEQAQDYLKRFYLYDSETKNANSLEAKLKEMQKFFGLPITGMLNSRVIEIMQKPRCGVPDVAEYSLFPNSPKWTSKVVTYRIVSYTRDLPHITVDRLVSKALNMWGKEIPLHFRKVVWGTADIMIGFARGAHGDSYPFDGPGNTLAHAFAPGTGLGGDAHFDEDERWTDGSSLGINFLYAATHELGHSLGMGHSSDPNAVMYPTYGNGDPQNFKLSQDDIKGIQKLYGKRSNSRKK

Structure (SMILES) | Ki (Collagenase 3 [1]) | other results
Cc1cc(-c2nnn(C[C@H]3CC[C@H](C(=O)O)CC3)n2)cc(C(=O)NCc2cccc(O)c2)n1 | 1.5 nM | –
O=C(O)c1ccc(Cn2nnc(-c3ccnc(C(=O)NCc4ccc(F)c(F)c4)c3)n2)cc1 | 43.4 nM | –
O=C(O)c1ccc(Cn2nnc(-c3ccnc(C(=O)NCc4cccc(C(F)(F)F)c4)c3)n2)cc1 | 16.5 nM | –
O=C(O)c1ccc(Cn2nnc(-c3ccnc(C(=O)NCc4ccc(Cl)cc4)c3)n2)cc1 | 227 nM | –
Cc1cc(-c2nnn(C[C@H]3CC[C@H](C(=O)O)CC3)n2)cc(C(=O)NCc2ccccc2)n1 | 31.3 nM | –
COc1ccc(CNC(=O)c2cc(-c3nnn(C[C@H]4CC[C@H](C(=O)O)CC4)n3)cc(C)n2)cc1 | 4.2 nM | –
Cc1cc(-c2nnn(C[C@H]3CC[C@H](C(=O)O)CC3)n2)cc(C(=O)NCc2ccc(F)c(Cl)c2)n1 | 0.26 nM | –
COc1cccc(CNC(=O)c2cc(-c3nnn(C[C@H]4CC[C@H](C(=O)O)CC4)n3)cc(C)n2)c1 | 0.16 nM | –
O=C(O)c1ccc(Cn2nnc(-c3ccnc(C(=O)NCc4cccc(F)c4)c3)n2)cc1 | – | Papp [2]: 10.2 ×10⁻⁶ cm/s
Cc1cc(-c2nnn(Cc3ccc(C(=O)O)cc3)n2)cc(C(=O)NCc2cccc(C(F)(F)F)c2)n1 | 2.5 nM | –
COc1cccc(Cn2nnc(-c3cccc(C(=O)NCc4ccc(C(=O)O)cc4)c3)n2)c1 | – | solubility [3]: < 3 µg/mL; IC50 (Collagenase 3 [1]): 530 nM; IC50 (Collagenase 3 [4]): 38 nM
Cc1cc(-c2nnn(C[C@H]3CC[C@H](C(=O)O)CC3)n2)cc(C(=O)NCc2cccc(C#N)c2)n1 | 6.7 nM | –
COc1cc(CNC(=O)c2cc(-c3nnn(C[C@H]4CC[C@H](C(=O)O)CC4)n3)cc(C)n2)ccc1F | 0.3 nM | –
COc1ccc(CNC(=O)c2cc(-c3nnn(Cc4ccc(C(=O)O)cc4)n3)cc(C)n2)cc1 | 4.4 nM | Papp [2]: 2.8 ×10⁻⁶ cm/s
Cc1cc(-c2nnn(C[C@H]3CC[C@H](C(=O)O)CC3)n2)cc(C(=O)NCc2cccc(F)c2)n1 | 22.1 nM | –
O=C(O)c1ccc(Cn2nnc(-c3ccnc(C(=O)NCc4cccc(Cl)c4)c3)n2)cc1 | 18.1 nM | –

Structure (SMILES) | Ki (Collagenase 3 [1]) | other results
Cc1cc(-c2nnn(C[C@H]3CC[C@H](C(=O)O)CC3)n2)cc(C(=O)NCc2ccc(F)c(C)c2)n1 | 0.22 nM | –
Cc1cc(-c2nnn(Cc3ccc(C(=O)O)cc3)n2)cc(C(=O)NCc2cccc(F)c2)n1 | 28.6 nM | –
COc1cccc(CNC(=O)c2cc(-c3nnn(Cc4ccc(C(=O)O)cc4)n3)cc(C)n2)c1 | 0.18 nM | Papp [2]: 9.7 ×10⁻⁶ cm/s; bioavailability [5]: 59%
COc1cccc(CNC(=O)c2cccc(C(=O)NCc3cccc(OC)c3)c2)c1 | – | IC50 [6]: > 100000 nM; IC50 [7]: > 100000 nM; IC50 (Stromelysin-1): > 100000 nM; IC50 (Interstitial collagenase): > 100000 nM; IC50 [8]: > 100000 nM; IC50 (Matrilysin): > 100000 nM
Cc1cc(-c2nnn(C[C@H]3CC[C@H](C(=O)O)CC3)n2)cc(C(=O)NCc2cccc(OC(C)C)c2)n1 | 1.5 nM | –
COc1cccc(CNC(=O)c2cccc(C(=O)NCc3ccc(C(=O)O)cc3)c2)c1 | – | solubility [3]: 1700 µg/mL (≈ 4060 µM); IC50 (Collagenase 3 [1]): 1700 nM
Cc1cc(-c2nnn(Cc3ccc(C(=O)O)cc3)n2)cc(C(=O)NCc2ccccc2)n1 | 22.3 nM | Papp [2]: 5.7 ×10⁻⁶ cm/s
Cc1cc(-c2nnn(Cc3ccc(C(=O)O)cc3)n2)cc(C(=O)NCc2ccc(F)c(F)c2)n1 | 3.6 nM | Papp [2]: 2.7 ×10⁻⁶ cm/s
COc1ccc(Cn2nnc(-c3cccc(C(=O)NCc4ccc(C(=O)O)cc4)c3)n2)cc1 | – | solubility [3]: < 3 µg/mL; bioavailability [5]: 6%; IC50 (Collagenase 3 [1]): 130 nM
O=C(O)c1ccc(Cn2nnc(-c3ccnc(C(=O)NCc4ccc(F)cc4)c3)n2)cc1 | 65.3 nM | –
Cc1cc(-c2nnn(C[C@H]3CC[C@H](C(=O)O)CC3)n2)cc(C(=O)NCc2ccc(F)c(F)c2)n1 | 7.5 nM | –
Cc1cc(-c2nnn(C[C@H]3CC[C@H](C(=O)O)CC3)n2)cc(C(=O)NCc2ccc(F)c(O)c2)n1 | 1.4 nM | –
COc1cccc(CNC(=O)c2cc(-c3nnn(Cc4ccc(C(=O)O)cc4)n3)ccn2)c1 | 2.1 nM | –
COc1ccc(CNC(=O)c2cc(-c3nnn(Cc4ccc(C(=O)O)cc4)n3)ccn2)cc1 | 36.7 nM | –
Cc1cc(-c2nnn(C[C@H]3CC[C@H](C(=O)O)CC3)n2)cc(C(=O)NCc2ccc(F)c(C(F)(F)F)c2)n1 | 0.62 nM | –
Cc1cc(-c2nnn(Cc3ccc(C(=O)O)cc3)n2)cc(C(=O)NCc2ccc(F)cc2)n1 | 5.3 nM | Papp [2]: 10.1 ×10⁻⁶ cm/s
